Series [1] in a line: in vitro. Particulars: human, decrease of viability of healthy lymphocytes. The source says:
(§1) For the determination of relative number of viable cells before and after treatments, in most cases the MTT assay was used. This calorimetric assay is based on the ability of living cells, but not dead cells, to reduce 3-(4, 5-dimethyl thiazol-2-yl)-2, 5-diphenyltetrazolium bromide [Carmichael, J, De Graff, W. G., Gazdar, A. F., Minna, J. D. and Mitchell, J. B. (1987), “Evaluation oftetrazolium-based semiautomated calorimetric assay: Assessment of chemosensitivity testing,” Cancer Res., 47, 936-942]. For this assay, cells were plated in 96-well plates (10,000-30,000 cells in case of cultured cells, 100,000 cells in case of healthy lymphocytes, and 200,000 cells in case of chronic lymphocytic leukemia or non-Hodgkin lymphocytes) in the respective incubation media. After a 24-h resting period, the cells were treated with the test agents and then incubated (in CO2 incubator under humidified atmosphere) for 72 hours (final incubation volume, 150 μl). The MTT assay was performed both with the untreated and treated cell cultures at the conclusion of the incubation. Often, the MTT assay also was performed at the start of treatments to allow assessment of proliferation rates in the control and treated cell cultures. All data presented are the average of 4 incubations (in 4 separate wells) with the same cell population.
Peripheral lymphocytes are known to be very sensitive to chemotherapy and this sensitivity often limits the dose of chemotherapy that can be employed. In this series of experiments, the combined effects of CCcompound104 alone or in combination with CCcompound26 or CCcompound3 were determined on the viability of peripheral lymphocytes to establish doses that reduce cell viability less than 50%. As in previous experiments, the treatments were performed for 72 hours.

The test system of series [2] is L5178/MDR1 mouse T-cell lymphoma cells. In words: cells. Particulars: Mus musculus, T-cell, 72 h, read-out: Inhibition (%) of viability.
Source text: as §1
L5178/MDR1 cells were seeded at 10,000 cells per well in 96-well plates and then incubated for 72 hours in the absence or presence of 5 μg/ml of CCcompound104 and various concentrations of CCcompound26 as indicated in Table 6.
(§2) Epirubicin, like doxorubicin and other antracyclins, is an MDR1 substrate. The goal of this experiment was to use epirubicin as a model compound to determine if in L5178/MDR1 cells CCcompound104 also can enhance the effects of MDR1 substrate anti-cancer agents other than CCcompound26 and other thioxanthene or thioxanthone CC compounds. The parent and MDR1 expressing cells were seeded at 30,000 cells per well in 96-well microplates and after a 24-h resting period treated with increasing concentrations of epirubicin n in the absence or presence of 5 μg/ml of CCcompound104 for 72 hours.

Series [3] can be described thus: Solubility in water. Format: physicochemical. An excerpt:
In one embodiment, CCcompound104, CCcompound26 and EA may be administered orally. The two CC compounds are water-soluble, while EA is first dissolved in absolute ethanol and diluted in water or a suitable physiologically compatible liquid solvent. In one embodiment of the invention, the CC compounds and EA are in the form of a tablet, gel capsule, a liquid, or the like. In each case, the compounds are mixed with one or more carriers chosen by one having ordinary skill in the art to best suit the goal of treatment. In addition to the active compounds, the tablet or gel may contain any component that is presently used in the pharmaceutical field to ensure firmness, stability, solubility and appropriate taste. Any additional component of the tablet or gel will be chemically inert; i.e., it will not participate in a chemical reaction with the active compounds or the other additives. Each compound may be prepared for oral consumption separately, or the tablet, gel capsule or liquid may contain any of the two components or all three components. Tablets containing 25 mg or 50 mg of EA can be purchased from Merck.

In series [4] the test system is CaOV-3 human ovarian cancer cell line. The series is described as follows: Cell viability, CaOV-3 cells. To be noted: Caov-3, read-out: decrease in viability / inhibition. The source says:
For the determination of relative number of viable cells before and after treatments, in most cases the MTT assay was used. This calorimetric assay is based on the ability of living cells, but not dead cells, to reduce 3-(4, 5-dimethyl thiazol-2-yl)-2, 5-diphenyltetrazolium bromide [Carmichael, J, De Graff, W. G., Gazdar, A. F., Minna, J. D. and Mitchell, J. B. (1987), “Evaluation oftetrazolium-based semiautomated calorimetric assay: Assessment of chemosensitivity testing,” Cancer Res., 47, 936-942]. For this assay, cells were plated in 96-well plates (10,000-30,000 cells in case of cultured cells, 100,000 cells in case of healthy lymphocytes, and 200,000 cells in case of chronic lymphocytic leukemia or non-Hodgkin lymphocytes) in the respective incubation media. After a 24-h resting period, the cells were treated with the test agents and then incubated (in CO2 incubator under humidified atmosphere) for 72 hours (final incubation volume, 150 μl). The MTT assay was performed both with the untreated and treated cell cultures at the conclusion of the incubation. Often, the MTT assay also was performed at the start of treatments to allow assessment of proliferation rates in the control and treated cell cultures. All data presented are the average of 4 incubations (in 4 separate wells) with the same cell population. […]

For series [5], the system named is parent L5178 mouse T-cell lymphoma cells. The series is described as follows: MTT cell viability, parent L5178 cells. To be noted: Mus musculus, L5178, 72 h, read-out: Inhibition (%) of viability.
Source text: as §1
Parent L5178 cells were seeded at 10,000 cells per well in 96-well plates and then incubated for 72 hours in the absence or presence of CCcompound104 (1 or 5 μg/ml) and various concentrations of CCcompound26 as indicated in Table 5.
as §2

Series [6] relates to MCF-7/ADR cells. In words: MTT cell viability, MCF-7/ADR cells. Particulars: 72 h; CCcompound104 5 μg/ml, EA 60 μM, CCcompound26/CCcompound3/CCcompound19 50 μM, alone or combined. Format: cell-based, human. The protocol:
MCF/ADR cells were selected by incubating the parent MCF-7 with toxic concentrations (up to 10 μM) of adriamycin (doxorubicin). The selected drug resistant cells express both MDR1 and MRP1 among other molecular alterations as reviewed earlier [Kiss, Z., Tomono, M. and Anderson, W. B. (1994), “Phorbol ester selectively stimulates the phospholipase D-mediated hydrolysis of phosphatidylethanolamine in multidrug-resistant MCF-7 human breast carcinoma cells,” Biochem. J., 302, 649-654]. […] Ethacrynic acid (EA) alone, used at 60 μM concentration, decreased cell viability by about 24%, while CCcompound104 and EA in combination had 70% inhibitory effects (Table 7). In this cell line CCcompound104 and EA decreased cell viability synergistically.

The results in this text go back to patent US20080207738A1, “DRUG COMBINATIONS TO TREAT DRUG RESISTANT TUMORS” (priority 2007, published 2008).

As for `C=CC[N+](CC)(CC)CC/C=C1/c2ccccc2Sc2ccc(C)cc21.[Br-]` [CCcompound26, N,N-Diethyl-N-allyl-3-(2-methyl-9H-thioxanthen-9-ylidene)-propan-1-aminiumbromide], the cytotoxicity at 72 h, 50 μM in series [1] was 100%. Moreover, in series [1] (over 4 lymphocyte preparations), the cytotoxicity at 72 h, 1 μM was 3 to 13%. Moreover, in series [2], the cytotoxicity at 1.56 µM came out at 0%, the cytotoxicity at 3.12 µM was determined as 0%, the cytotoxicity at 6.25 µM came to 10% and the cytotoxicity at 12.5 µM came to 15%. Besides, in series [2], the cytotoxicity at 25 µM amounted to 13% and the cytotoxicity at 100 µM was 56%. For the same compound, the solubility in water entry in series [3] was “water-soluble”. Moreover, in series [4], the cytotoxicity at 12.5 µM was below 15% and the cytotoxicity at 25 µM is below 45%. For the same compound, in series [5], the cytotoxicity at 1.56 µM is 55%, the cytotoxicity at 3.12 µM worked out at 68% and the cytotoxicity at 6.25 µM is 80%. Further, the “Inhibition (%) of viability” value in series [6] is given as 24.3%.
